Assay results from patent US20250311722A1, “IMPROVED BIOCIDE” (Purgos ApS, priority 2022, published 2025).
Where “and” joins values, the source holds several entries; their conditions need not be identical. Identical values can stand only once.

How the values were obtained:
[1] = system: Candida albicans ISI 1226; experiment: Minimum bactericidal concentration (MBC); type: cell-based; parameters: MBC data (outgrowth): unit not given here
Source text: (§1) Even when no growth is detectable in the MIC tests, it is possible that the microorganisms have survived the treatment i.e., they are not killed but just prevented from growing. In order to test for survivors, MBC plates were subsequently made from the MIC plates.

[2] = system: Leuconostoc mesenteroides ISI 504; experiment: Minimum bactericidal concentration (MBC); type: cell-based; parameters: MBC data (outgrowth): unit not given here
Source text: as §1

[3] = system: Salmonella Infantis ISI 170; experiment: Minimum bactericidal concentration (MBC); type: cell-based; parameters: MBC data (outgrowth): unit not given here
Source text: as §1

[4] = system: Streptococcus termophilus ISI 1563; experiment: Minimum bactericidal concentration (MBC); type: cell-based; parameters: MBC data (outgrowth): unit not given here
Source text: as §1

[5] = system: Listeria monocytogenes ISI 22; experiment: Minimum bactericidal concentration (MBC); type: cell-based; parameters: MBC data (outgrowth): unit not given here
Source text: as §1

[6] = system: Debaryomyces hansenii ISI 12; experiment: Minimum bactericidal concentration (MBC); type: cell-based; parameters: MBC data (outgrowth): unit not given here
Source text: as §1

[7] = system: Pseudomonas aeruginosa ISI 1462; experiment: Minimum bactericidal concentration (MBC); type: cell-based; parameters: MBC data (outgrowth): unit not given here
Source text: as §1

rat = details: cited from earlier work
Aspergillus niger ISI 3 = experiment: Minimal inhibitory concentration (MIC); type: cell-based
Method: (§2) Minimum inhibitory concentrations (MICs) are defined as the lowest concentration of an antimicrobial that will inhibit the visible growth of a microorganism after a standardized incubation. In the present study, MIC assay was performed by pipetting robot. The principle is that an indicator microorganism at a defined cell density is cultured with a range of concentrations of the test compound, one concentration pr, well in a row on the microtiter plate. For bacteria and yeasts the minimal inhibitory concentration was detected as no increase of optical density (OD), for moulds microtiter plates were read visually. Each indicator organism is tested in duplicate and the MIC is calculated as the average of the two determinations. The tested concentrations of the antimicrobial substances were 2-fold dilutions from 5%. All indicator organisms (see Table 2.) were pre-cultivated in a suitable growth medium and diluted in the same medium to give a final concentration in the assay of ˜1×10^3 cfu/ml. The microtiter plates were incubated under specific incubation conditions (see Table III). [table]

[8] = system: Lactobacillus brevis ISI 2269; experiment: Minimal inhibitory concentration (MIC); type: cell-based
Method: as §2

[9] = system: Streptococcus termophilus ISI 1563; experiment: Minimal inhibitory concentration (MIC); type: cell-based
Method: as §2

Bacillus cereus ISI 842 = experiment: Minimal inhibitory concentration (MIC); type: cell-based
Method: as §2

[10] = system: Pseudomonas aeruginosa ISI 1462; experiment: Minimal inhibitory concentration (MIC); type: cell-based
Method: as §2

## CCCCN(CCO)CCO [NBDA, N-butyldiethanolamine]
[1]
  MBC (%): 1.25%
[1]; 0.02% NBDA
  MBC data (outgrowth): 1.332 and 1.357
[1]; 0.04% NBDA
  MBC data (outgrowth): 1.291 and 1.314
[1]; 0.08% NBDA
  MBC data (outgrowth): 1.278 and 1.314
[1]; 0.16% NBDA
  MBC data (outgrowth): 1.171 and 1.485
[1]; 0.31% NBDA
  MBC data (outgrowth): 1.168 and 1.175
[1]; 1.25% NBDA
  MBC data (outgrowth): 0.079 and 0.080
[1]; 2.50% NBDA
  MBC data (outgrowth): 0.074 and 0.075
[1]; 5.00% NBDA
  MBC data (outgrowth): 0.068
[2]
  MBC (%): 0.63%
[2]; 0.02% NBDA
  MBC data (outgrowth): 1.449 and 1.467
[2]; 0.04% NBDA
  MBC data (outgrowth): 1.449 and 1.468
[2]; 0.08% NBDA
  MBC data (outgrowth): 1.413 and 1.467
[2]; 0.16% NBDA
  MBC data (outgrowth): 1.337 and 1.425
[2]; 0.31% NBDA
  MBC data (outgrowth): 1.452 and 1.448
[2]; 1.25% NBDA
  MBC data (outgrowth): 0.075
[2]; 2.50% NBDA
  MBC data (outgrowth): 0.076 and 0.077
[2]; 5.00% NBDA
  MBC data (outgrowth): 0.066 and 0.067
[3]
  MBC (%): 1.25%
[3]; 0.02% NBDA
  MBC data (outgrowth): 1.732 and 1.806
[3]; 0.04% NBDA
  MBC data (outgrowth): 1.858 and 1.853
[3]; 0.08% NBDA
  MBC data (outgrowth): 1.841 and 1.791
[3]; 0.16% NBDA
  MBC data (outgrowth): 1.826 and 1.827
[3]; 0.31% NBDA
  MBC data (outgrowth): 1.786 and 1.488
[3]; 0.63% NBDA
  MBC data (outgrowth): 1.806 and 1.787
[3]; 1.25% NBDA
  MBC data (outgrowth): 0.074 and 0.071
[3]; 2.50% NBDA
  MBC data (outgrowth): 0.068 and 0.070
[3]; 5.00% NBDA
  MBC data (outgrowth): 0.066 and 0.060
[4]
  MBC (%): 1.25%
[4]; 0.02% NBDA
  MBC data (outgrowth): 0.346 and 0.323
[4]; 0.04% NBDA
  MBC data (outgrowth): 0.307 and 0.283
[4]; 0.08% NBDA
  MBC data (outgrowth): 0.311 and 0.304
[4]; 0.16% NBDA
  MBC data (outgrowth): 0.251 and 0.232
[4]; 0.31% NBDA
  MBC data (outgrowth): 0.802 and 0.522
[4]; 0.63% NBDA
  MBC data (outgrowth): 0.277 and 0.427
[4]; 1.25% NBDA
  MBC data (outgrowth): 0.072
[4]; 2.50% NBDA
  MBC data (outgrowth): 0.070 and 0.068
[4]; 5.00% NBDA
  MBC data (outgrowth): 0.062 and 0.058
[5]
  MBC (%): 2.5%
[5]; 0.02% NBDA
  MBC data (outgrowth): 1.197 and 1.009
[5]; 0.04% NBDA
  MBC data (outgrowth): 1.195 and 1.097
[5]; 0.08% NBDA
  MBC data (outgrowth): 1.201 and 1.059
[5]; 0.16% NBDA
  MBC data (outgrowth): 1.216 and 1.141
[5]; 0.31% NBDA
  MBC data (outgrowth): 1.320 and 1.310
[5]; 0.63% NBDA
  MBC data (outgrowth): 1.496 and 1.507
[5]; 1.25% NBDA
  MBC data (outgrowth): 1.517 and 1.533
[5]; 2.50% NBDA
  MBC data (outgrowth): 0.065 and 0.070
[5]; 5.00% NBDA
  MBC data (outgrowth): 0.060 and 0.062
[6]
  MBC (%): 2.5%
[6]; 0.02% NBDA
  MBC data (outgrowth): 1.491 and 1.495
[6]; 0.04% NBDA
  MBC data (outgrowth): 1.493 and 1.461
[6]; 0.08% NBDA
  MBC data (outgrowth): 1.472
[6]; 0.16% NBDA
  MBC data (outgrowth): 1.473 and 1.469
[6]; 0.31% NBDA
  MBC data (outgrowth): 1.432 and 1.393
[6]; 0.63% NBDA
  MBC data (outgrowth): 1.387 and 1.458
[6]; 1.25% NBDA
  MBC data (outgrowth): 1.333 and 1.309
[6]; 2.50% NBDA
  MBC data (outgrowth): 0.074
[6]; 5.00% NBDA
  MBC data (outgrowth): 0.068 and 0.069
[7]
  MBC (%): 1.25%
[7]; 0.02% NBDA
  MBC data (outgrowth): 1.360 and 2.248
[7]; 0.04% NBDA
  MBC data (outgrowth): 2.186 and 1.311
[7]; 0.08% NBDA
  MBC data (outgrowth): 1.779 and 2.051
[7]; 0.16% NBDA
  MBC data (outgrowth): 1.680 and 2.303
[7]; 0.31% NBDA
  MBC data (outgrowth): 1.477 and 1.570
[7]; 0.63% NBDA
  MBC data (outgrowth): 1.909 and 1.789
[7]; 1.25% NBDA
  MBC data (outgrowth): 0.071 and 0.070
[7]; 2.50% NBDA
  MBC data (outgrowth): 0.071 and 0.069
[7]; 5.00% NBDA
  MBC data (outgrowth): 0.066 and 0.061
rat
  LD50 (rat, oral): 4250 mg/kg
Aspergillus niger ISI 3
  MIC (%): 0.63%
[8]
  MIC (%): 0.16%
[8]; 0.02% NBDA
  MIC data (optical density): 0.509 and 0.458
[8]; 0.04% NBDA
  MIC data (optical density): 0.468 and 0.485
[8]; 0.08% NBDA
  MIC data (optical density): 0.465 and 0.586
[8]; 0.16% NBDA
  MIC data (optical density): 0.054 and 0.057
[8]; 0.31% NBDA
  MIC data (optical density): 0.049 and 0.048
[8]; 0.63% NBDA
  MIC data (optical density): 0.047 and 0.046
[8]; 1.25% NBDA
  MIC data (optical density): 0.047 and 0.045
[8]; 2.50% NBDA
  MIC data (optical density): 0.046 and 0.049
[8]; 5.00% NBDA
  MIC data (optical density): 0.043 and 0.040
[9]
  MIC (%): 0.63%
[9]; 0.02% NBDA
  MIC data (optical density): 0.57 and 0.515
[9]; 0.04% NBDA
  MIC data (optical density): 0.445 and 0.473
[9]; 0.08% NBDA
  MIC data (optical density): 0.431 and 0.462
[9]; 0.16% NBDA
  MIC data (optical density): 0.444 and 0.438
[9]; 0.31% NBDA
  MIC data (optical density): 0.115 and 0.108
[9]; 0.63% NBDA
  MIC data (optical density): 0.046 and 0.043
[9]; 1.25% NBDA
  MIC data (optical density): 0.044 and 0.045
[9]; 2.50% NBDA
  MIC data (optical density): 0.049
[9]; 5.00% NBDA
  MIC data (optical density): 0.041 and 0.042
Bacillus cereus ISI 842
  MIC (%): 1.25%
Bacillus cereus ISI 842; 0.02% NBDA
  MIC data (optical density): 0.797 and 0.933
Bacillus cereus ISI 842; 0.04% NBDA
  MIC data (optical density): 0.953 and 0.926
Bacillus cereus ISI 842; 0.08% NBDA
  MIC data (optical density): 0.880 and 0.764
Bacillus cereus ISI 842; 0.16% NBDA
  MIC data (optical density): 0.716 and 0.833
Bacillus cereus ISI 842; 0.31% NBDA
  MIC data (optical density): 0.811 and 0.739
Bacillus cereus ISI 842; 0.63% NBDA
  MIC data (optical density): 0.664 and 0.824
Bacillus cereus ISI 842; 1.25% NBDA
  MIC data (optical density): 0.108 and 0.143
Bacillus cereus ISI 842; 2.50% NBDA
  MIC data (optical density): 0.100 and 0.145
Bacillus cereus ISI 842; 5.00% NBDA
  MIC data (optical density): 0.087 and 0.120
[10]
  MIC (%): 0.63%
[10]; 0.02% NBDA
  MIC data (optical density): 1.725 and 1.921
[10]; 0.04% NBDA
  MIC data (optical density): 1.894 and 1.661
[10]; 0.08% NBDA
  MIC data (optical density): 1.938 and 1.871
[10]; 0.16% NBDA
  MIC data (optical density): 1.888 and 1.911
[10]; 0.31% NBDA
  MIC data (optical density): 1.668 and 1.319
[10]; 0.63% NBDA
  MIC data (optical density): 0.047 and 0.044
[10]; 1.25% NBDA
  MIC data (optical density): 0.045 and 0.043
[10]; 2.50% NBDA
  MIC data (optical density): 0.046 and 0.047
[10]; 5.00% NBDA
  MIC data (optical density): 0.045
